According to publication PMC11597817, “Modulation of Multispecific Transporters by Uncaria tomentosa Extract and Its Major Phytoconstituents” (Pharmaceutics, 2024):
Where two headings read alike, the source gives them in different places.

Target: T1, OCT1 (Homo sapiens, UniProt O15245)
T1 construct: expressed in transfected cells; host or cells: HEK293 (lentiviral transduction; cDNA synthesised by GenScript)
T1 sequence (O15245 1-554): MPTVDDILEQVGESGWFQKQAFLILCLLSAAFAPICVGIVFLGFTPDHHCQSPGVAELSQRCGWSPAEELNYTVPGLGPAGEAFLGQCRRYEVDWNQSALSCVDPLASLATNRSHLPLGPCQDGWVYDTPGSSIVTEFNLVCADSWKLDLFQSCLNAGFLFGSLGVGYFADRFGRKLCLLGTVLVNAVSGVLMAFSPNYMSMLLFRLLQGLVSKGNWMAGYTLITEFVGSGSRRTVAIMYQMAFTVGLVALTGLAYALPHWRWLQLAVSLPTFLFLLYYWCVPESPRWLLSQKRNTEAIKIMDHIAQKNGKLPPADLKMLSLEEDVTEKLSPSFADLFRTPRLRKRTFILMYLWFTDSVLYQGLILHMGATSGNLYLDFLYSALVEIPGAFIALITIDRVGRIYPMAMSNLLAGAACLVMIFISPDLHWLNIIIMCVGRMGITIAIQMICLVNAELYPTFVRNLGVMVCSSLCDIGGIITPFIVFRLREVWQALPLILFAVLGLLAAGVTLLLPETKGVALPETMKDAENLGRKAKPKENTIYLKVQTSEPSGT
Experiment: Uptake inhibition assay, OCT1-overexpressing HEK293 cells
Format: cell-based
Conditions: oxindole alkaloids, substrate metformin, read-out: IC50 (95% CI of IC50)
Text: The human embryonic kidney 293 (HEK293) cell line was purchased from Invitrogen/ThermoFisher (Waltham, MA, USA). Madin–Darby canine kidney II (MDCKII) wild type cells were obtained from the European Collection of Authenticated Cell Cultures (ECACC catalog no. 00062107). HEK293 cells overexpressing the human uptake OATP1B1 (NCBI Reference Sequence: NM_006446.4), OATP1B3 (NM_019844), OATP2B1 (NM_007256), OATP1A2 (NM_134431), OAT1-3 (BC033682.1; NM_006672.3; BC022387), OCT1-3 (BC126364.1; NM_003058; NM_021977), OCTN1 (NM_003059.3), NTCP (NM_003049.3), MATE1 (NM_018242.3), MATE2K (NM_001099646.2), ENT4 (NM_001040661.1), SGLT2 (AJ133127.1), ASCT1/2 (NM_003038.5; NM_005628.3), LAT1/2 (NM_003486.6; NM_012244.4), and THTR1/2 (NM_006996; NM_025243) and mock and human efflux BCRP (NM_004827.2), BSEP (NM_003742.2), MDR1 (NM_000927.4), and MRP1-5 (NM_004996; NM_000392.4; BC137347.1; NM_005845.4; NM_005688.2) transporters as well as MDCKII overexpressing human ENT1/2 (NM_001078177; NM_001532.2) and URAT1 (BC053348) transporters were created by lentiviral transduction. The cDNA encoding respective transporters were synthetized and cloned by GenScript (Piscataway, NJ, USA). The production of lentivirus supernatants, the transduction of the cells, cloning, functional characterization, and validation were performed by Charles River Laboratories Hungary Kft. (Budapest, Hungary).
Cell cultures were maintained in Dulbecco’s modified Eagle’s medium (DMEM), 4.5 g/L of glucose, supplemented with GlutaMAX^TM, 2.5 v/v % penicillin/streptomycin, and 10% fetal bovine serum (FBS) at 37 °C, 5% CO2, and 90% relative humidity. The medium was replaced two or three times per week; cells were harvested using TrypLE™ Express (ThermoFisher) at 80 to 90% confluence and passaged or seeded. HEK293 cells of passage < 12 (from thawing) and MDCKII cells of passage < 18 were seeded at a density of 1 × 10^5 cells/well onto poly-D-lysine-coated or -non-coated 96-well plates and incubated for 18–22 h prior to inhibition assays.
Plated cells were preincubated with a transport buffer (HBSS) containing 30 or 150 µg/mL of UT extract or 100 µM of isopteropodine, mitraphylline, or uncarine D for 15 min at an appropriate temperature. […] For radiolabeled substrates, accumulation was measured by liquid scintillation counting (MicroBeta Scintillation Counter, PerkinElmer).
The transporter-mediated uptake and ATP-dependent transport were determined by subtracting the activity of the control cell/transporter abundant-membrane in the presence of AMP from the activity of the transporter-overexpressing cell/transporter-abundant membrane in the presence of ATP. The relative transporter-specific accumulation was expressed as the percent of DMSO activity. […] Confidence intervals (CIs) of 95% were also determined. […]

SMILES | IC50 (listed as Mitraphylline) | IC50 | IC50 (listed as Isopteropodine)
COC(=O)C1=CO[C@@H](C)[C@H]2CN3CC[C@]4(C(=O)Nc5ccccc54)[C@@H]3C[C@H]12 [mitraphylline] | 7.05 µM | 7.1 µM | 
COC(=O)C1=CO[C@@H](C)[C@@H]2CN3CC[C@@]4(C(=O)Nc5ccccc54)[C@@H]3C[C@H]12 [isopteropodine] |  | 2.8 µM | 2.81 µM
